The results in this text go back to patent US11542255B2, “Sulfonylureas and sulfonylthioureas as NLRP3 inhibitors” (Inflazome Limited, priority 2017, dated 2023).

The nature of series [1]: PK protocol, intravenous administration. In kind it is in vivo, male Sprague Dawley rats. The following applies: male, Sprague Dawley, rat, plasma, dose (mg/kg); for Vd: read-out: Vdss. The protocol:
(§1) Pharmacokinetic parameters were determined in male Sprague Dawley rats (Charles River, UK, 250-350 g; or Vital River Laboratory Animal Technology Co Ltd, Beijing, China, 7-9 weeks old). Animals were individually housed during the study and maintained under a 12 h light/dark cycle. Animals had free access to food and water except that some orally dosed animals were food deprived overnight prior to the study.
(§2) For intravenous administration, compounds were formulated as a solution in water or […] in 2 mL/kg dosing volume and administered via tail vein. For oral administration, compounds were formulated as a solution in water or DMSO:water [10:90] in 5 mL/kg dosing volume and administered orally.
(§3) Serial blood samples (about 120-300 μL) were taken from each animal at each of 8 time-points post dose (0.083, 0.25, 0.5, 1, 2, 4, 8 and 24 h) or at each of 12 time-points post dose (0.03, 0.1, 0.17, 0.25, 0.5, 1, 2, 4, 6, 8, 12 and 24 h) or pre-dose and at each of 9 time-points post dose (0.25, 0.5, 1, 2, 4, 6, 8, 12 and 24 h). Samples were held on ice for no longer than 30 minutes before centrifugation (10,000 rpm (8,385 g) for 3 minutes; or 5,696 rpm (3,0009 for 15 minutes) for plasma generation. Plasma was frozen on dry ice prior to boanalysis. PK parameters were generated from LC-MS/MS data using Dotmatics or Phoenix WinNonlin 6.3 software.

Series [2] can be described thus: PK protocol, oral administration. In kind it is in vivo, male Sprague Dawley rats. The following applies: male, Sprague Dawley, plasma, rat, dose (mg/kg). The protocol:
as §1, §2, §3

Series [3] addresses T1, NLRP3 (Homo sapiens, UniProt Q96P20). In words: THP-1 cells pyroptosis assay (LPS + nigericin, resazurin readout). It counts as cell-based. Details: Seed THP-1 cells (25,000 cells/well) containing 1.0 μg/ml LPS in 40 μl of RPMI medium; host or cells: THP-1 cells. The following applies: NLRP3 inhibitory activity, 1.0 μg/ml LPS, 5 μM nigericin. The method, boiled down: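 LPS-primed (1 μg/ml) THP-1 cells, 25,000/well in serum-free RPMI, given compound (8-point half-log, 10 μM top; 0.1% DMSO) for 3 h at 37 °C, then nigericin 5 μM for 1 h. Viability by resazurin (100 μM, 1-2 h), Ex 560/Em 590 nm; IC50 from 4-parameter variable-slope fit.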
A general note: Alamar Blue is a resazurin reagent that responds to reducing activity.

The target in series [4] is T1, NLRP3. In words: Human whole blood IL1β release assay (LPS + nigericin, AlphaLisa IL-1β). In kind it is cell-based. Details: Human whole blood in Li-heparin tubes was obtained from healthy donors from a volunteer donor panel; from tissue; host or cells: human whole blood from healthy donors. As to conditions: NLRP3 inhibitory activity, 1 μg/ml LPS, 10 μM nigericin, IL-1β release, read-out: HWB IC50. The method, boiled down:
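Donor human whole blood (Li-heparin) was primed with 1 μg/mL LPS while incubated with compound (8-point half-log, 10 μM top, 0.1% DMSO) for 3 h at 37° C., then stimulated with 10 μM nigericin for 1 h. Supernatant IL-1β measured by AlphaLISA; IC50 from 4-parameter nonlinear fit.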

pIC50: −log10 of the molar value. Where a name gives a salt, the structure may show the parent alone. Bounds are passed on as bounds.

T1 sequence (Q96P20 whole entry): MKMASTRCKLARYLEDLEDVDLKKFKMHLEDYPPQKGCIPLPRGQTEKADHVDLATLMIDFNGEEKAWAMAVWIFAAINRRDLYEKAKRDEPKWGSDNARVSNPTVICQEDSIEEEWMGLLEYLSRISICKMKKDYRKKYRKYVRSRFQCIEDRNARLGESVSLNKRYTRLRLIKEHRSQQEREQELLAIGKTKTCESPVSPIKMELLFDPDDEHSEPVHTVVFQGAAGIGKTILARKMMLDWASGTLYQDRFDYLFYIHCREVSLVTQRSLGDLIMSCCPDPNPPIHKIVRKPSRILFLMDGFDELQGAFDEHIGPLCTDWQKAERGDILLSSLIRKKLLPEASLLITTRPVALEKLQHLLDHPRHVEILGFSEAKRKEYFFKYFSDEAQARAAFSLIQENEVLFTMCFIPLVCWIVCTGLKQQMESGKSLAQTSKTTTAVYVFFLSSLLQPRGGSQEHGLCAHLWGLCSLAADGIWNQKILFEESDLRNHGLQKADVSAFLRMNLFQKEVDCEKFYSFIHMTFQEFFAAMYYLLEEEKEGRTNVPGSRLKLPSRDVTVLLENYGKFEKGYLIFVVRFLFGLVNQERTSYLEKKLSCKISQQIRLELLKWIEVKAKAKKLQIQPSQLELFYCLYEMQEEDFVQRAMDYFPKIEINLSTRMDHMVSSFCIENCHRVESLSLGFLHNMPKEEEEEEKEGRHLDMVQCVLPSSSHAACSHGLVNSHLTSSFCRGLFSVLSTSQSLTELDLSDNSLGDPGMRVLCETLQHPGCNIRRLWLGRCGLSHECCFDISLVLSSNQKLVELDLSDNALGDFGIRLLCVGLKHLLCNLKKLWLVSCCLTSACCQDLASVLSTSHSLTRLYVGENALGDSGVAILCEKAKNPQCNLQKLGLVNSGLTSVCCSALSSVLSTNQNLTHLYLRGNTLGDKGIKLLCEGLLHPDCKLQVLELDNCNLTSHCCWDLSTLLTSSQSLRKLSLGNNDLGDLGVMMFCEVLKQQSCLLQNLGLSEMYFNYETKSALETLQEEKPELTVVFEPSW

For `CC(C)c1cc(Cl)cc(C(C)C)c1NC(=O)NS(=O)(=O)c1cc(CN(C)C)n(C)n1` [Example 93, N-((4-Chloro-2,6-diisopropylphenyl)carbamoyl)-5-((dimethylamino)methyl)-1-methyl-1H-pyrazole-3-sulfonamide, Sodium Salt], in series [1], the area under the curve (AUC) is 4230 ng·h/mL, the clearance came out at 10.8 mL/min/kg, the half-life is 3.3 h and the Vd worked out at 1.71 L/kg. The molecule also returned a bioavailability in series [2] of 31.3%. Moreover, in series [2] (po), the AUC turned out to be 3310 ng·h/mL, the CL/F stood at 18 mL/min/kg, the peak level (Cmax) was 1100 ng/mL and the Tmax was 0.36 h. Also, the pIC50 in series [3] is 6.80 to 7.40. The pIC50 in series [4] is 5.80 to 6.10.

On to `CN(C)Cc1cc(S(=O)(=O)NC(=O)Nc2c3c(cc4c2CCC4)CCC3)nn1C` [Example 94, 5-((Dimethylamino)methyl)-N-((1,2,3,5,6,7-hexahydro-s-indacen-4-yl)carbamoyl)-1-methyl-1H-pyrazole-3-sulfonamide], for which, in series [1], the AUC turned out to be 4700 ng·h/mL, the clearance was found to be 3.8 mL/min/kg, the half-life is 1.1 h and the Vd is 0.27 L/kg. Besides, the bioavailability in series [2] is 91.6%. In series [2] (po), the AUC was determined as 12900 ng·h/mL, the CL/F came to 4.1 mL/min/kg, the Cmax was 7180 ng/mL and the time of peak concentration (Tmax) is 0.58 h. Also, the half-life in series [2] (po) was 1.5 h. Further, the pIC50 in series [3] was greater than 7.40. The pIC50 in series [4] is greater than 6.40.

One may read the AUC as concentration integrated over time. Read a high AUC as high exposure. One may read the clearance as a measure of how efficiently the substance is removed, as volume per time. A high value points to efficient removal. As a reminder, the half-life is the time in which the quantity being followed falls by half. Low readings indicate rapid decline, high ones slow decline. A word on the bioavailability: it is the share of a dose that reaches the circulation, judged against a reference dose that is usually intravenous. High values mean much systemic uptake, low ones little systemic uptake. What is called CL/F is the apparent clearance, not corrected for the fraction that reaches the circulation. One may read the Cmax as the highest concentration seen after dosing. A word on the Tmax: it is the time at which the peak concentration occurs. Usually pIC50 stands for −log10 of the IC50, conventionally taken in molar units.
